Measurements published in patent US10046014B2, “Useful active agent for preventing and/or treating dandruff conditions of the scalp” (L'OREAL, priority 2011, dated 2018).

Columns and labels:
Malassezia globosa = assay: Antifungal inhibition test on agar (Malassezia suspension, growth scored against control); type: cell-based; design: key to inhibition score (density of the culture at the surface of the agar vs growth control): 3: No growth; 2: Growth < in the control dish; 1: Growth < in the control dish; 0: Growth comparable to the control dish; settings: positive reference 1% zinc pyrithione
Experimental: (§1) The test product is brought into contact with the Malassezia suspension. The mixture is deposited at the surface of agar medium. It is spread and the excess is recovered before incubation. It is incubated for at least 5 days at 30° C.
(§2) The products are placed in solution in liquid modified Leeming and Notman medium (LNm) and the tests are carried out in duplicate. The complete culture is at 7.5 g/l or 150 g/l (concentrated version) on a dry matter basis.
(§3) The complete culture was tested at 10% (for the concentration at 7.5 g/l) and at 1% (for the concentration at 150 g/l).
(§4) The positive reference is 1% zinc pyrithione.
(§5) The solutions of the products are twice as concentrated in order to take into account the dilution to ½ during the bringing into contact with the Malassezia suspension.
(§6) The Malassezia globosa and restricta strains were received on agar slopes and were subcultured and incubated at 30° C. until the tests.
(§7) The suspensions are prepared in 15 ml of a buffered solution (ref AEB611294, AES).
(§8) The density of the suspensions is taken at 550 nm.
(§9) The antifungal effect of the reference product is evaluated via the absence of growth of the Malassezia strain tested. This inhibition is evaluated relative to the growth control.
(§10) The inhibitions are scored from 3 to 0 via assessment of the density of the culture at the surface of the agar, in comparison with the growth control for the strain.

Malassezia restricta = assay: as above; type: cell-based; design: key to inhibition score (density of the culture at the surface of the agar vs growth control): 3: No growth; 2: Growth < in the control dish; 1: Growth < in the control dish; 0: Growth comparable to the control dish; settings: positive reference 1% zinc pyrithione
Experimental: as §1, §2, §3, §4, §5, §6, §7, §8, §9, §10

## Zinc pyrithione
Malassezia globosa
  inhibition in words: Total inhibition
Malassezia globosa; at least 5 days at 30° C.
  inhibition score (density of the culture at the surface of the agar vs growth control): 3
Malassezia restricta
  inhibition in words: Total inhibition
Malassezia restricta; at least 5 days at 30° C.
  inhibition score (density of the culture at the surface of the agar vs growth control): 3
